Residues, ends and D or L forms follow the SMILES beside them. *: point of attachment. pNA = O=[N+]([O-])c1ccc(N*)cc1; Cbz = O=C(OCc1ccccc1)*
What was measured:
[1] = system: Candida albicans; assay: Tests on substrates against Candida albicans, colour reading on buffered gelose; assay type: cell-based; conditions: Table I; for Reading at 24 h: medium pH 6.0, YNB, glucose, agar, gentamycin, coloration or fluorescence
[2] = system: Candida tropicalis; assay: Tests on substrates against Candida tropicalis, colour reading on buffered gelose; assay type: cell-based; design: C. TROPICALIS reading at 48 h: key to the marks not given beside the values; conditions: for Reading at 24 h: Table II, medium pH 6.0, YNB, glucose, agar, gentamycin; for C. TROPICALIS reading at 24 h: Table III, medium pH 6.0
[3] = system: Candida krusei; assay: Tests on substrates against Candida krusei, colour reading on buffered gelose; as to Reading at 24 h: key: -: none; +: weak; ++: moderate; +++: intense; ++++: very intense; assay type: cell-based; design: key to Specificity: interference with C. krusei: (a): interference with C. albicans (++++); (b): interference with C. krusei (++); (c): interference with C. tropicalis (++); conditions: for Reading at 24 h: Table IV, medium pH 6.0
[4] = system: T. glabrata; assay: Tests on substrates against T. glabrata, colour reading on buffered gelose; as to T. GLABRATA reading at 24 h: key: -: none; +: weak; ++: moderate; +++: intense; ++++: very intense; assay type: cell-based, Torulopsis glabrata; design: T. GLABRATA reading at 48 h: key: -: none; +: weak; ++: moderate; +++: intense; ++++: very intense; conditions: for T. GLABRATA reading at 24 h: Table III, medium pH 6.0
[5] = system: T. glabrata; assay: Diagnosis from isolated colonies on gelose 2/5; assay type: cell-based, Torulopsis glabrata; conditions: Table VII; isolated colonies, 9 strains; gelose 2; also: key: -: none; +: weak; ++: moderate; +++: intense; ++++: very intense
[6] = system: C. krusei; assay: Diagnosis from isolated colonies on gelose 2/5; assay type: cell-based, Candida krusei; conditions: Table VII; isolated colonies, 6 strains; gelose 2
Procedure: According to the afore-mentioned best mode of carrying out the invention, a culture medium containing the following ingredients is prepared; it is called gelose 2 below and is buffered to pH 6.0.
According to the afore-mentioned best mode of carrying out the invention, a culture medium containing the following ingredients is prepared; it is called gelose 5 below and is buffered to pH 6.0.
Several isolated strains of C. albicans, C. tropicalis, C. krusei, C. guillermondii, C. pseudotropicalis, C. parapsilosis, C. zeylanoides, T. glabrata and Trichosporon cutaneum were inoculated and incubated on the media of Examples 1 to 5. […] Part of the results obtained has been collated in Table VI below, where the TTC column relates to results of tests undertaken separately on a standard gelose medium containing TTC.
Several isolated strains of C. albicans, C. tropicalis, C. krusei, C. guillermondii and T. glabrata were inoculated and incubated on the media of Example 2 [containing either the substrate N-Ac-β-D-galactosaminide-PNP of the prior art, or the substrates H-L-PropNA.AcOH (specific for C. albicans), EM-L-Phg-L-ArgpNA.AcOH (specific for T. glabrata) and H-Gly-L-Pro-L-Arg-pNA.2AcOH (specific for C. krusei)]and of Example 5 (containing the substrate H-L-Pro-pNA.AcOH).

[7] = system: C. albicans; assay: Diagnosis from isolated colonies on gelose 2/5; assay type: cell-based, Candida albicans; conditions: Table VII; isolated colonies, 6 strains; gelose 2; also: key: -: none; +: weak; ++: moderate; +++: intense; ++++: very intense
[8] = system: C. tropicalis; assay: Diagnosis from isolated colonies on gelose 2/5; assay type: cell-based, Candida tropicalis; conditions: gelose 2
[9] = system: Candida guillermondii; assay: Tests on substrates against Candida guillermondii; design: Reading at 24 h: key to the marks not given beside the values

`CC(=O)O.O=C(Nc1ccc2cc(Br)ccc2c1)[C@@H]1CCCN1` [H-L-Pro-(6-Br)NA.AcOH, reference compound] was tested, and the “Specificity: nonspecific for the strains of Candida albicans” value [1] was “(a)” and the “Reading at 24 h” value [1] was “+”.
In the case of `N=C(N)NCCC[C@H](NC(=O)[C@@H]1CCCN1)C(=O)Nc1ccc([N+](=O)[O-])cc1` [H-L-Pro-L-Arg-pNA.2AcOH] (H-Pro-Arg-pNA), the “Reading at 24 h” value [2] was “++”.
`N=C(N)NCCC[C@H](NC(=O)[C@@H]1CCCN1C(=O)[C@@H]1CCCN1)C(=O)Nc1ccc([N+](=O)[O-])cc1` [H-L-Pro-L-Pro-L-Arg-pNA.2AcOH] (H-Pro-Pro-Arg-pNA) was tested, and the “Reading at 24 h” value [1] was “+++”, the “Specificity: interference with C. tropicalis” value ([2]; Table I) was “(b)” and the “Reading at 24 h” value [2] was “++++”. The “Specificity: interference with C. tropicalis” value ([2]; Table IV) was “(a)” and the “Reading at 24 h” value [3] was “-”.
`CC(=O)O.O=C(Nc1ccc2ccccc2c1)[C@@H]1CCCN1` [H-L-Pro-NA.AcOH, reference compound] was tested, and the “Specificity: nonspecific for the strains of Candida albicans” value [1] was “(a)” and the “Reading at 24 h” value [1] was “++”.
In the case of `CC(=O)O.COCCOCCOC(=O)NC(CCCN=C(N)N)C(=O)Nc1ccc([N+](=O)[O-])cc1` [MeO(CH2 CH2 O)2 CO-L-Arg-pNA.AcOH], the “Reading at 24 h” value [1] was “-”.
In the case of `O=C(NCC(=O)N1CCC[C@H]1C(=O)Nc1ccc([N+](=O)[O-])cc1)OCc1ccccc1` [Z-Gly-L-Pro-pNA] (Cbz-Gly-Pro-pNA), the “Reading at 24 h” value [1] was “-”.
For `CC(=O)O.NCCCC[C@H](NC(=O)OCc1ccccc1)C(=O)Nc1ccc([N+](=O)[O-])cc1` [Z-L-Lys-pNA.AcOH], the “Reading at 24 h” value [1] was “-”.
With Boc-L-Hyp-L-Pro-L-Arg-pNA.AcOH the “T. GLABRATA reading at 24 h” value [4] was “-” and the “C. TROPICALIS reading at 24 h” value [2] was “+”.
BzNH-D-Ala-Gly-L-Arg-pNA.AcOH was tested, and the “T. GLABRATA reading at 24 h” value [4] was “-” and the “C. TROPICALIS reading at 24 h” value [2] was “++”.
With BzNH-L-Ala-Gly-L-Arg-pNA.AcOH the “T. GLABRATA reading at 24 h” value [4] was “-” and the “C. TROPICALIS reading at 24 h” value [2] was “+++”.
EM-L-Hyp-L-Arg-pNA.AcOH was tested, and the “T. GLABRATA reading at 48 h” value ([4]; Table III footnotes) was “+++”, the “T. GLABRATA reading at 24 h” value [4] was “-” and the “C. TROPICALIS reading at 48 h” value ([2]; Table III footnotes) was “+++”. For the same molecule, the “C. TROPICALIS reading at 24 h” value [2] was “++”.
For EM-L-Phg-L-Arg-pNA.AcOH, the “Reading at t = 24 h” value [5] was “+++”, the “T. GLABRATA reading at 24 h” value [4] was “++++” and the “Reading at t = 24 h” value [6] was “-”. For the same molecule, the “C. TROPICALIS reading at 24 h” value [2] was “+++”, the “Reading at t = 24 h” value [7] was “-” and the “hydrolysis by the strains of C. tropicalis” value ([8]; Example 7, isolated strains) was “hydrolyzed”. For the same molecule, the “Reading at t = 24 h” value ([8]; Table VII, isolated colonies, 9 strains) was “++”.
In the case of H-D-Pro-L-Hyp-L-Arg-pNA.2AcOH, the “Reading at 24 h” value [2] was “+++”.
For H-L-Hyp-L-Arg-pNA.2AcOH, the “Reading at 24 h” value [2] was “++”.
With H-L-Hyp-L-Hyp-L-Arg-pNA.2AcOH the “Reading at 24 h” value [2] was “+++”.
For H-L-Hyp-L-Lys-pNA.2AcOH, the “Reading at 24 h” value [2] was “++”.
With H-L-Hyp-L-Pro-L-Arg-pNA.2AcOH the “Reading at 24 h” value [2] was “+++”.
For H-L-ONC-L-Arg-pNA.AcOH, the “Reading at 24 h” value [3] was “++”, the “Specificity: interference with C. krusei” value ([3]; Table V) was “(b)” and the “Specificity: interference with C. guillermondii” value ([9]; Table IV) was “(e)”. The “Reading at 24 h” value ([9]; Table V) was “++++”.
In the case of H-L-ONC-L-Pro-L-Arg-pNA.AcOH, the “Reading at 24 h” value [2] was “+++”.
MM-L-Phg-L-Arg-pNA.AcOH was tested, and the “T. GLABRATA reading at 24 h” value [4] was “+ +++” and the “C. TROPICALIS reading at 24 h” value [2] was “++”.
In the case of Z-L-Ala-L-Pro-pNA, the “Reading at 24 h” value [1] was “-”.

Reference: patent US5449612A, “Process for identifying candida by means of chromogenic substances” (Serbio, priority 1990, dated 1995)
